Assay results published in ChEMBL document CHEMBL3817743, “Potent and Selective Human Neuronal Nitric Oxide Synthase Inhibition by Optimization of the 2-Aminopyridine-Based Scaffold with a Pyridine Linker” (J Med Chem, 2016).

How the values were obtained:
[1] = target: T1, Nitric oxide synthase, inducible (Mus musculus, UniProt P29477); assay: Inhibition of recombinant mouse macrophage iNOS expressed in Escherichia coli using L-arginine as substrate assessed as reduction in NO production measured for 6 mins by hemoglobin capture assay
T1 sequence (P29477 whole entry): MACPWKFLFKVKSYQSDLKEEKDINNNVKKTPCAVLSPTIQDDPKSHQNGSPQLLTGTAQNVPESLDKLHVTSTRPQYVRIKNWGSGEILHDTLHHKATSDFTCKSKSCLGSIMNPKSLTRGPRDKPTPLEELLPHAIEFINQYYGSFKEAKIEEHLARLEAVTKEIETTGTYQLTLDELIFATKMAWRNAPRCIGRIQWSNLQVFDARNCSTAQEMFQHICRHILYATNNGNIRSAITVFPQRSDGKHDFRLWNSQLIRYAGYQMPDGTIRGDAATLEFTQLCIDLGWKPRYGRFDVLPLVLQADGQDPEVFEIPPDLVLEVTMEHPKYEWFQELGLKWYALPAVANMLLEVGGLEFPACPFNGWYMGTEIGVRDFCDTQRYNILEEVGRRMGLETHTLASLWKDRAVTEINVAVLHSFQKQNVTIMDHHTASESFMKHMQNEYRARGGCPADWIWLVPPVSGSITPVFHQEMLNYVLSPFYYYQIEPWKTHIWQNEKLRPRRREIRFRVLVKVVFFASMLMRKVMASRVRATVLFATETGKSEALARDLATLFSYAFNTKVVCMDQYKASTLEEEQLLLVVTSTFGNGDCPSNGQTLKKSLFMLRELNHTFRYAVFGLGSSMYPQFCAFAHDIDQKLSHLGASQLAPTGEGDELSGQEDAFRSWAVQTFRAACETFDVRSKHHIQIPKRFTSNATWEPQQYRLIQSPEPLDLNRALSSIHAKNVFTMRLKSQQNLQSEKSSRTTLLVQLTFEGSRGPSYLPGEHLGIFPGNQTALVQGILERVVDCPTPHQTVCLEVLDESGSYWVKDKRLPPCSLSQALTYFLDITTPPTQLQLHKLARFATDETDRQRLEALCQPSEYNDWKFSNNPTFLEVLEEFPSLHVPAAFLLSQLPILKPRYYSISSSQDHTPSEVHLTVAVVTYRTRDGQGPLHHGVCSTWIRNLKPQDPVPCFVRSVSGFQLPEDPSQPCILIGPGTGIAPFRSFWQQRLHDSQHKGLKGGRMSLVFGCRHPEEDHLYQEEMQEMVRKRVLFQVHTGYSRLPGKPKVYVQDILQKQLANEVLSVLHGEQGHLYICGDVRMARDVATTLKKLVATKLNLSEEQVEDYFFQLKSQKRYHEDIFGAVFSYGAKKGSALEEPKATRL

Nitric oxide synthase 1 = Nitric oxide synthase 1 (Rattus norvegicus, UniProt P29476); assay: Inhibition of rat recombinant nNOS expressed in Escherichia coli using L-arginine as substrate assessed as reduction in NO production measured for 6 mins in presence of tetrahydrobiopterin by hemoglobin capture assay
Chain of Nitric oxide synthase 1 (P29476 whole entry): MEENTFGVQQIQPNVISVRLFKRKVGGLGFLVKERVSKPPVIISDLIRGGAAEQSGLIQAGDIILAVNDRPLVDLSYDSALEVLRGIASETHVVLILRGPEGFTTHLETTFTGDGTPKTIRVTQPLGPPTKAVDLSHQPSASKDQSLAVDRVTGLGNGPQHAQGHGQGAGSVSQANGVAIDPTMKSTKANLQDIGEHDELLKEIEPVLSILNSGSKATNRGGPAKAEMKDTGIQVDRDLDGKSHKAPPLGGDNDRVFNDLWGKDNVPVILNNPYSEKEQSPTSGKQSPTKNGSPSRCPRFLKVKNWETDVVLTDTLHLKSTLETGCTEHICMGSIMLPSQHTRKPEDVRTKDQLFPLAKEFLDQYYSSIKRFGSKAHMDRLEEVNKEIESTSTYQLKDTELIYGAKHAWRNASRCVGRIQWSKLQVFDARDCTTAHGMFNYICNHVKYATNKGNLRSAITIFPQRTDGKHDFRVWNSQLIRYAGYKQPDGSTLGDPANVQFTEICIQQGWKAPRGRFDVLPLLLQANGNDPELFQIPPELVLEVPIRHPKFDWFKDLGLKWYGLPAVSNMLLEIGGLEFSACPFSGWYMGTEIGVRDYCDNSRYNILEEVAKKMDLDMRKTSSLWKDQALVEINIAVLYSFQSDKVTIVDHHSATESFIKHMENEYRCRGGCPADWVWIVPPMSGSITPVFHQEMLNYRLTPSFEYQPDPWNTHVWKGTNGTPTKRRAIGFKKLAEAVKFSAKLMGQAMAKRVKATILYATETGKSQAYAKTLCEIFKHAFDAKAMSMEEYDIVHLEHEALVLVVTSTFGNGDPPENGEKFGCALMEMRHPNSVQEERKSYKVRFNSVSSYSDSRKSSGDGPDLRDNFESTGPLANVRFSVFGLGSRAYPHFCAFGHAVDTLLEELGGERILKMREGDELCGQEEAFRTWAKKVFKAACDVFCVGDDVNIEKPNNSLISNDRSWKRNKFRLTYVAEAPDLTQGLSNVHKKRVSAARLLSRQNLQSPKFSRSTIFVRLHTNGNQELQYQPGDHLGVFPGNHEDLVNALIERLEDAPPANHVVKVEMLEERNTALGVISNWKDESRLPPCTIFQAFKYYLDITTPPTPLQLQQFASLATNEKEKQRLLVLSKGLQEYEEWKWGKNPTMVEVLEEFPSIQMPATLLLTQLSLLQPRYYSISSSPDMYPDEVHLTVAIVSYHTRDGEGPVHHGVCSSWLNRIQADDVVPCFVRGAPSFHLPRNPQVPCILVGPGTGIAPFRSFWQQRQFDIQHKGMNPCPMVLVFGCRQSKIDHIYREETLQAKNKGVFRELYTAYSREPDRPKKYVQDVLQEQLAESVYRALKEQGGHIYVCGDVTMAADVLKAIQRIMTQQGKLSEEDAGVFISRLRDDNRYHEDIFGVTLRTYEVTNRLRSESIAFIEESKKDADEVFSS

Cytochrome P450 2D6 = Cytochrome P450 2D6 (Homo sapiens, UniProt P10635); assay: Inhibition of CYP2D6 in human liver microsomes using bufuralol as substrate at 10 uM preincubated for 5 mins followed by NADPH addition measured after 10 mins by LC-MS/MS analysis relative to control; type: ADME
Chain of Cytochrome P450 2D6 (P10635 whole entry): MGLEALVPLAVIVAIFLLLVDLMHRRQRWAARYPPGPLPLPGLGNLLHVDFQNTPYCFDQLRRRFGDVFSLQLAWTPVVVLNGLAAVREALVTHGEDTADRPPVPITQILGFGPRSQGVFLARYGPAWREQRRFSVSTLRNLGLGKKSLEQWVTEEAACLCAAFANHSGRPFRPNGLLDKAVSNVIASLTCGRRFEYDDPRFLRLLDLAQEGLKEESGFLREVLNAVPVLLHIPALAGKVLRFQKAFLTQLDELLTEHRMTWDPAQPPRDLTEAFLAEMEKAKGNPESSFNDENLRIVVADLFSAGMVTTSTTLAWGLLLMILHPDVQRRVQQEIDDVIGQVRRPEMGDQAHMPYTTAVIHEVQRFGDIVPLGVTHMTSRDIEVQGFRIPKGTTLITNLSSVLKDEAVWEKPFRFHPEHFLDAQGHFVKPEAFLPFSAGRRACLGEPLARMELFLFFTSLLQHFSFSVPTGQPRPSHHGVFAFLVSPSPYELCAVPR

[2] = Drug metabolism in human liver microsomes at 1 uM preincubated for 5 mins followed by NADPH addition measured after […] mins by LC-MS/MS analysis; type: ADME; details: read-out: Drug metabolism
Cytochrome P450 1A2 = target: T2, Cytochrome P450 1A2 (Homo sapiens, UniProt P05177); assay: Inhibition of CYP1A2 in human liver microsomes using phenacetin as substrate at 10 uM preincubated for 5 mins followed by NADPH addition measured after 10 mins by LC-MS/MS analysis relative to control; type: ADME
T2 sequence (P05177 whole entry): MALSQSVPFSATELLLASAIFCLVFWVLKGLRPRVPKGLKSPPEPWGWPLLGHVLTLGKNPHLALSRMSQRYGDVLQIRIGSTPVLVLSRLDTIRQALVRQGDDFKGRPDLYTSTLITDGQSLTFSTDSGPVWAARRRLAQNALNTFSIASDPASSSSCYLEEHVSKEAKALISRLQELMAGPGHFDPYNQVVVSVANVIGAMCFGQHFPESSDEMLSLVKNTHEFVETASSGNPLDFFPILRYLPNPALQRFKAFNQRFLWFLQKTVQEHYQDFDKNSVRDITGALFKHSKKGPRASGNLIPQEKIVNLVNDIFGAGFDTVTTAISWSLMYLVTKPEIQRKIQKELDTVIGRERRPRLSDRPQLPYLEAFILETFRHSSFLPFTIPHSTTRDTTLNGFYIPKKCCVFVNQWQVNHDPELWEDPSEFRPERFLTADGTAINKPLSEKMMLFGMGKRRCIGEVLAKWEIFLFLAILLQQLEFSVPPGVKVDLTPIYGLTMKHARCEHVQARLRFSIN

[3] = Permeability from apical to basolateral side in human Caco2 cells at 10 uM after 2 hrs by LC-MS/MS analysis; type: ADME, cell-based; details: caco-2, 2 h
[4] = Drug metabolism in human liver microsomes at 1 uM incubated for 60 mins by LC-MS/MS analysis; type: ADME; details: read-out: Drug metabolism
Cytochrome P450 2C9 = Cytochrome P450 2C9 (Homo sapiens, UniProt P11712); assay: Inhibition of CYP2C9 in human liver microsomes using diclofenac as substrate at 10 uM preincubated for 5 mins followed by NADPH addition measured after 10 mins by LC-MS/MS analysis relative to control; type: ADME
Chain of Cytochrome P450 2C9 (P11712 whole entry): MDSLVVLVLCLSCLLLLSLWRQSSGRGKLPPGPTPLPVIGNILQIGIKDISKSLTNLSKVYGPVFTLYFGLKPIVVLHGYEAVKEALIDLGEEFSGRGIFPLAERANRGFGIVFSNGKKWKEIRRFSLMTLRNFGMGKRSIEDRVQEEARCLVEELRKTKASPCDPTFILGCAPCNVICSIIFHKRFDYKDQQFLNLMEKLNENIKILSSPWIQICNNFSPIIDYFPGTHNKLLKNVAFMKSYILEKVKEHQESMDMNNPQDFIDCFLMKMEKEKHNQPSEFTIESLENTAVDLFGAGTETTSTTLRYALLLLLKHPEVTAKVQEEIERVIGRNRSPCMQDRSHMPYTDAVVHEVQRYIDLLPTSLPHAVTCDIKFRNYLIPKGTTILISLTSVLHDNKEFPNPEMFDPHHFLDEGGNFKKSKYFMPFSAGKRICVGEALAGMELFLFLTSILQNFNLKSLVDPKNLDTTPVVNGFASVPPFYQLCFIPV

Compound | Ki [1] | Ki (Nitric oxide synthase 1) | inhibition (INH) (Cytochrome P450 2D6) | metabolised at […], 1 µM [2] | inhibition (INH) (Cytochrome P450 1A2) | permeability [3] | metabolised at 1 h, 1 µM [4] | inhibition (INH) (Cytochrome P450 2C9)
Cc1cc(N)nc(CCc2cncc(N3CCCCC3)c2)c1 | 5.64 µM | 1.87 µM | – | – | – | – | – | –
Cc1cc(N)nc(CCc2cccnc2)c1 | 2.78 µM | 0.706 µM | – | – | – | – | – | –
CNCCCc1cncc(CCc2cc(C)cc(N)n2)c1 | – | – | 6% | 23% | 9% | impermeable | 23% | 0%
